Source: patent US10440953B2, “Control of pests in maize by ginkgolides and bilobalide” (priority 2015, dated 2019)
Read-outs that look alike come from different tables or passages of the source.

Experiments:
Format in all cases: in vivo
Nezara viridula [1] = experiment: Soil drench on corn, mortality of Nezara viridula (Example-2); conditions: soil drench 2.5 mg active ingredient per plant, infested 3DAT, measured 7DAT
Experimental: Ginkgolide A and Bilobalide were each dissolved in a solution of 50 wt % of acetone in water and applied to the soil of corn four days after planting at a rate of 2.5 mg of the active ingredient per plant. Prior to infestation the soil was covered with parafilm to prevent insect exposure to treated soil. Each plant was infested 3DAT with four 4th instar Nezara viridula insects. Insects were contained on the plant using organza fabric bags. Four replicates on different plants were made for each measurement. The mortality of the insects was measured 7DAT. The mean mortality values were gathered in Table E.

Nezara viridula [2] = experiment: Corn seed treatment, damage protection against Nezara viridula (Example-3); conditions: 4th instar N. viridula, assessed 10DAT
Experimental: Ginkgolide A was dissolved in DMSO and applied to corn seeds at rates of 1.0 and 0.5 mg of Ginkgolide A per plant. One seed was planted per pot in a 1:1 mixture of North Carolina loamy sand:sand. Prior to infestation, soil was covered with parafilm to prevent insect exposure to treated soil. After emergence of the plants, each pot was infested with four 4th instar Nezara viridula insects. Insects were contained on the pots using organza fabric bags. Four replicates on different plants were made for each measurement. The mean damage protection of the corn plants was assessed 10DAT in comparison with untreated controls. For plant height, root mass, and root length, evaluation of the damage protection of the plants was carried out for each treatment as the increase from the infested solvent blank (SB) relative to the increase of the uninfested control from the infested solvent blank: (Treatment−Infested SB)/Uninfested SB−Infested SB)×100%. The results of the mean damage protection values were gathered in Table F.

Nezara viridula [3] = experiment: Foliar spray of maize plants, mortality of Nezara viridula (Example-1); conditions: for mortality at 100 ppm: Nezara viridula, foliar, 72 h
Experimental: Zea mays plants were grown to growth stage BBCH 12. The maize plants were then sprayed with 300 l/ha of aqueous compositions comprising either no component of the ginkgo tree, 300 ppm of ginkgolide A, or 100 ppm of bilobalide. The plants were then allowed to dry and subsequently infested with five insects (either adult, or 4th instar nymphs) of Nezara viridula. Insects were contained on the plant using mesh organza bags. Three replicates on different plants were made for each measurement. Three days after infestation, the number of live and dead insects was determined. The mean mortality values were gathered in Table D.

Euschistus heros [4] = experiment: Spray of Agrisure Viptera and Roundoup Ready 2 maize seedlings with ginkgolide A, control of Euschistus heros (Example-5); conditions: for Relative Efficacy 3DAI: Abbott's formula; for No of alive insects 3DAI: ten adult E. heros per plant
Experimental: (§1) Relative efficacy (E) values were calculated according to Abbot's formula E=[(C−G)/C]×100, wherein C is the percentage of alive insects in untreated controls, and G is the percentage of alive insects in plants treated with components of the ginkgo tree.
(§2) Agrisure™ Viptera and Roundoup Ready™ 2 Zea mays seedlings were sprayed with 1 ml of compositions comprising either no component of the ginkgo tree, or bilobalide at a concentration of 50, 100, or 150 ppm. Plants were allowed to dry and subsequently infested with ten adult insects of Euschistus heros. Three replicate measurement on different plants were made for each measurement. Six days after infestation (6DAI) number of live and dead insects was determined. The mean number of alive insects, as well as the relative efficacy values (E) according to Abbott's formula were gathered in Table G, wherein the number of alive insects in untreated controls (C) was the value of the same plant without the application of bilobalide.
Three days after infestation (3DAI) number of live and dead insects was determined. The mean number of alive insects, as well as the relative efficacy values (E) according to Abbott's formula were gathered in Table H, wherein the number of alive insects in untreated controls (C) was the value of the same plant without the application of ginkgolide A.

Euschistus heros [5] = experiment: Spray of Agrisure Viptera and Roundoup Ready 2 maize seedlings with bilobalide, control of Euschistus heros (Example-4); conditions: for Relative Efficacy 6DAI: Abbott's formula; for No of alive insects 6DAI: ten adult E. heros per plant
Experimental: as §1, §2

[6] = Agrisure Viptera maize, 10 ppm ginkgolide A
[7] = Agrisure Viptera maize, 250 ppm ginkgolide A
[8] = Roundoup Ready 2 maize, 10 ppm ginkgolide A
[9] = Roundoup Ready 2 maize, 250 ppm ginkgolide A
[10] = Agrisure Viptera maize, 50 ppm bilobalide
[11] = Agrisure Viptera maize, 100 ppm bilobalide
[12] = Agrisure Viptera maize, 150 ppm bilobalide
[13] = Roundoup Ready 2 maize, 50 ppm bilobalide
[14] = Roundoup Ready 2 maize, 100 ppm bilobalide
[15] = Roundoup Ready 2 maize, 150 ppm bilobalide

C[C@@H]1C(=O)O[C@H]2C[C@@]34[C@H]5C[C@@H](C(C)(C)C)[C@]36[C@@H](OC(=O)[C@@H]6O)O[C@@]4(C(=O)O5)[C@]21O [Ginkgolide A]
Mortality of 4th instar nymphs relative to untreated control (Nezara viridula [1]): 100% | Mean damage protection (Nezara viridula [2]; seed treatment 0.5 mg/seed): 64% | Mean damage protection (Nezara viridula [2]; seed treatment 1.0 mg/seed): 77% | Mortality of 4th instar nymphs (Nezara viridula [3]; 300 ppm ginkgolide A, 300 l/ha spray on Zea mays BBCH 12, 4th instar N. viridula, three days after infestation): 61.5% | Mortality of Adults (Nezara viridula [3]; 300 ppm ginkgolide A, 300 l/ha spray on Zea mays BBCH 12, adult N. viridula, three days after infestation): 20.0% | Relative Efficacy 3DAI (Euschistus heros [4]; [6]): 38% | No of alive insects 3DAI (Euschistus heros [4]; [6]): 5.3 | Relative Efficacy 3DAI (Euschistus heros [4]; [7]): 35% | No of alive insects 3DAI (Euschistus heros [4]; [7]): 5.7 | Relative Efficacy 3DAI (Euschistus heros [4]; [8]): 14% | No of alive insects 3DAI (Euschistus heros [4]; [8]): 8.3 | Relative Efficacy 3DAI (Euschistus heros [4]; [9]): 21% | No of alive insects 3DAI (Euschistus heros [4]; [9]): 7.7

CC(C)(C)[C@]1(O)C[C@@H]2OC(=O)C[C@@]23C(=O)O[C@@H]2OC(=O)[C@H](O)[C@]213 [Bilobalide, (3aS,5aR,8aS,9R,10aR)-9-tert-butyl-8,9-dihydroxydihydro-9H-furo[2,3-b]furo[3′,2′;2,3]cyclopenta[1,2-c]furan-2,4,7(3H,8H)-trione]
Relative Efficacy 6DAI (Euschistus heros [5]; [10]): 92% | No of alive insects 6DAI (Euschistus heros [5]; [10]): 0.7 | Relative Efficacy 6DAI (Euschistus heros [5]; [11]): 96% | No of alive insects 6DAI (Euschistus heros [5]; [11]): 0.3 | Relative Efficacy 6DAI (Euschistus heros [5]; [12]): 100% | No of alive insects 6DAI (Euschistus heros [5]; [12]): 0.0 | Relative Efficacy 6DAI (Euschistus heros [5]; [13]): 83% | No of alive insects 6DAI (Euschistus heros [5]; [13]): 1.0 | Relative Efficacy 6DAI (Euschistus heros [5]; [14]): 89% | No of alive insects 6DAI (Euschistus heros [5]; [14]): 0.7 | Relative Efficacy 6DAI (Euschistus heros [5]; [15]): 94% | No of alive insects 6DAI (Euschistus heros [5]; [15]): 0.3 | Mortality of 4th instar nymphs relative to untreated control (Nezara viridula [1]): 85% | mortality at 100 ppm (Nezara viridula [3]; read-out: Mortality of 4th instar nymphs): 84.6% | mortality at 100 ppm (Nezara viridula [3]; read-out: Mortality of Adults): 33.3%
